Where “and” joins values, the source holds several entries; their conditions need not be identical. Identical values can stand only once. Like-named read-outs stand apart in the source and are kept apart here.
How the values were obtained:
Assay type in all cases: biochemical
[1] = molecular target: T1, cloned human mu opioid receptor (Homo sapiens, UniProt P35372); assay: GTP-γ-S Binding Assay, mu opioid receptor (Table 1: Receptor Binding); details: membranes from cells expressing cloned human mu receptor
T1 construct: expressed in transfected cells

[2] = molecular target: T2, cloned human delta opioid receptor (Homo sapiens, UniProt P41143); assay: GTP-γ-S Binding Assay, delta opioid receptor (Table 1: Receptor Binding); details: membranes from cells expressing cloned human delta receptor
T2 construct: expressed in transfected cells
Procedure: The functional antagonist potency (Kb) of the sample compounds was determined using the GTPγS binding assay. GTPgS-based functional assays provide an in vitro measure of the activity of opioid agonists and antagonists. Opioid reference compounds or test compound are incubated with membrane homogenate from cells expressing the cloned human mu, kappa or delta opioid receptor and radiolabeled [35S]GTPgS. If the compound activates the opioid receptor, an increase in the binding of radiolabeled GTPgS is observed. […] These tests provide an in vitro measurement of the activity of the compound at human opioid receptors. GTP-γ-S Binding Assay
An SPA-based GTP-γ-S assay format was developed based on previous opioid (Emmerson et al., J. Pharm Exp Ther 278, 1121, 1996; Horng et al., Society for Neuroscience Abstracts, 434.6, 2000) and muscarinic (DeLapp et al., JPET 289, 946, 1999) assay formats. Membranes were resuspended in 20 mM HEPES, 100 mM NaCl, 5 mM MgCl2, 1 mM DTT, and 1 mM EDTA. Fifty (50) […], of GTP-γ-[35S], compound; membrane suspension (20 microgram/well), and wheat germ agglutinin coated SPA beads (1 mg/well) were added to clear bottom 96 well assay plates. GDP ([…]) was added to the membrane solution prior to addition to the assay plates. Plates were sealed and incubated for four hours at room temperature then placed in a refrigerator overnight to allow the beads to settle. Signal stability at 4° C. was determined to be >6O hours. Plates were warmed to room temperature and counted in a Wallac Microbeta scintillation counter. For antagonist assays, specific agonists were added at the following concentrations: (MOR) DAMGO 1 micromolar, (DOR) DPDPE 30 nM, (KOR) U69593 300 nM. Kb's were determined by Cheng-Prusoff equation (see Cheng and Prusoff, Biochem. Pharmacol. 22, 3099, 1973).

[3] = molecular target: T3, cloned human kappa opioid receptor (Homo sapiens, UniProt P41145); assay: GTP-γ-S Binding Assay, kappa opioid receptor (Table 1: Receptor Binding); details: membranes from cells expressing cloned human kappa receptor
T3 construct: expressed in transfected cells

[4] = read-out: Receptor Binding (Ki, nM) Mu

T1 sequence (P35372 whole entry): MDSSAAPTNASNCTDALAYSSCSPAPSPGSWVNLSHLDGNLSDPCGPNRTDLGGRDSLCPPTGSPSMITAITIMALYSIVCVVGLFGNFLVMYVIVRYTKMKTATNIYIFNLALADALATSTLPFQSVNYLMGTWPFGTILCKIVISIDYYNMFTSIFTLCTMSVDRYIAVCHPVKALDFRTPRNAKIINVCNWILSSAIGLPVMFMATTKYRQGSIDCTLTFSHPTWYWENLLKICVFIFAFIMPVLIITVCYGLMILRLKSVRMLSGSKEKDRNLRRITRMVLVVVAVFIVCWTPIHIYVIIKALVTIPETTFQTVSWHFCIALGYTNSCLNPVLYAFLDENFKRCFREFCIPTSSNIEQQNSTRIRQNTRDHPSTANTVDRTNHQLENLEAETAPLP
T3 sequence (P41145 whole entry): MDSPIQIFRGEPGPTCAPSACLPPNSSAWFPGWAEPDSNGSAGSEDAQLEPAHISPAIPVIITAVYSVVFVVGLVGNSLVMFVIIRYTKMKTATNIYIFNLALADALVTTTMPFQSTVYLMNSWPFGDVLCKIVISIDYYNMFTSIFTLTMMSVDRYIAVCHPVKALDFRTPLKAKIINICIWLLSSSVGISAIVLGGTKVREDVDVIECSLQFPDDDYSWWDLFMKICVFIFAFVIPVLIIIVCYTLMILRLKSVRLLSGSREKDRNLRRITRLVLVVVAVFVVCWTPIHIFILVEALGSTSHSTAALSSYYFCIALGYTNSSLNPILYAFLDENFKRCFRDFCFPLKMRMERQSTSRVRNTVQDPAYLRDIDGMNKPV
T2 sequence (P41143 whole entry): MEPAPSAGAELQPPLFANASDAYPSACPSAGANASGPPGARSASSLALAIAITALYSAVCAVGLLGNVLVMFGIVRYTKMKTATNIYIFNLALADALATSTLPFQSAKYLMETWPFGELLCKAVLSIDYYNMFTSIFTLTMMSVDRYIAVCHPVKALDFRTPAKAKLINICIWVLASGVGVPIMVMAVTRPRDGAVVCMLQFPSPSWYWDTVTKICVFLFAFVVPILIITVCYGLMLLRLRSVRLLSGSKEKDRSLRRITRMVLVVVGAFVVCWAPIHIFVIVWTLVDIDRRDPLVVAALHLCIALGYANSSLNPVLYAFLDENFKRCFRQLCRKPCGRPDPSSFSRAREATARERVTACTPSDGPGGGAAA

Row | Compound | Ki [1, 4] | Ki [2] | Ki [3] | Ki ([1]; Receptor Binding (Ki, nM) Mu)
1 | 6-{4-[(2-Pyridin-4-yl-ethylamino)-methyl]-phenylsulfanyl}-nicotinamide [Example 19] | 107 nM | 858 nM | 137 nM | –
2 | CC(=O)c1ccc(Oc2ccc(CCNCc3ccccc3)cc2)cc1 [Example 5, 1-{4-[4-(2-Benzylamino-ethyl)-phenoxy]-phenyl}-ethanone] | 1310 nM | > 5000 nM | > 5000 nM | –
3 | CC(=O)Oc1ccc(Oc2ccc(CCNCc3ccccc3)cc2)cc1 [Example 6, Acetic acid 4-[4-(2-benzylamino-ethyl)-phenoxy]phenyl ester] | 229 nM | 3250 nM | 1620 nM | –
4 | NC(=O)c1ccc(Sc2ccc(CNCC3CC3)cc2)nc1 [Example 10, 6-{4-[(Cyclopropylmethyl-amino)-methyl]-phenylsulfanyl}-nicotinamide] | 726 nM | 3040 nM | > 5000 nM | –
5 | CC(C)CCNCc1ccc(Sc2ccc(C(N)=O)cn2)cc1 [Example 13, 6-{4-[(3-Methyl-butylamino)-methyl]-phenylsulfanyl}-nicotinamide] | 563 nM | 3520 nM | 2440 nM | –
6 | NC(=O)c1ccc(S(=O)(=O)c2ccc(CNCCc3ccccc3)cc2)cc1 [Example 14, 4-[4-(Phenethylamino-methyl)-benzenesulfonyl]-benzamide] | 86.4 nM | 714 nM | 1020 nM | –
7 | NC(=O)c1ccc([S+]([O-])c2ccc(CNCCc3ccccc3)cc2)cc1 (stereo not shown) [Example 15, 4-[4-(Phenethylamino-methyl)-benzenesulfinyl]-benzamide] | 292 nM | 1820 nM | 654 nM | –
8 | NCCc1ccc(Nc2ccc(C(N)=O)cn2)cc1 [Example 16, 6-[4-(2-Amino-ethyl)-phenylamino]-nicotinamide] | – | 270 nM | 1020 nM | 45.4 nM
9 | NC(=O)c1ccc(Nc2ccc(CCNCc3ccccc3)cc2)nc1 [Example 17, 6-[4-(2-Benzylamino-ethyl)-phenylamino]-nicotinamide] | 1350 nM | > 5000 nM | 761 nM | –
10 | NC(=O)c1ccc(Nc2ccc(CCNCC3CCCCC3)cc2)nc1 [Example 18, 6-{4-[2-(Cyclohexylmethyl-amino)-ethyl]-phenylamino}-nicotinamide] | 48.7 nM | 278 nM | 466 nM | –
11 | NC(=O)c1ccc(Nc2ccc(CNCc3ccccc3)cc2)nc1 [Example 20, 6-[4-(Benzylamino-methyl)-phenylamino]-nicotinamide] | 73.2 nM | 537 nM | 402 nM | –
12 | NC(=O)c1ccc(Nc2ccc(CNCC3CCCCC3)cc2)nc1 [Example 21, 6-{4-[(Cyclohexylmethyl-amino)-methyl]-phenylamino}-nicotinamide] | > 3000 nM | > 5000 nM | > 4000 nM | –
13 | NC(=O)c1ccc(Nc2ccc(CNCCc3ccccc3)cc2)nc1 [Example 22, 6-[4-(Phenethylamino-methyl)-phenylamino]-nicotinamide] | > 3000 nM | > 5000 nM | > 4000 nM | –
14 | CC(=O)Nc1ccc(Oc2ccc(CCNC(=O)OC(C)(C)C)cc2)cc1 [Example 24, {2-[4-(4-Acetylamino-phenoxy)-phenyl]-ethyl}-carbamic acid tert-butyl ester] | 198 nM | 4020 nM | 2670 nM | –
15 | CC(=O)Nc1ccc(Oc2ccc(CCN)cc2)cc1 [Example 25, N-{4-[4-(2-Amino-ethyl)-phenoxy]-phenyl}-acetamide] | – | 2510 nM | 3970 nM | 67.5 nM
16 | CCCCCCNCCc1ccc(Oc2ccc(NC(C)=O)cc2)cc1 [Example 27, N-{4-[4-(2-Hexylamino-ethyl)-phenoxy]-phenyl}-acetamide] | 200 nM and 64.3 nM | – | – | –
17 | CC(=O)Nc1ccc(Oc2ccc(CCNCc3cccs3)cc2)cc1 [Example 28, N-[4-(4-{2-[(Thiophen-2-ylmethyl)-amino]-ethyl}-phenoxy)-phenyl]-acetamide] | 26.9 nM | 469 nM | 150 nM | –
18 | CC(=O)Nc1ccc(Oc2ccc(CCNCCCc3ccccc3)cc2)cc1 [Example 29, N-(4-{4-[2-(3-Phenyl-propylamino)-ethyl]-phenoxy}-phenyl)-acetamide] | 5.06 nM | 62.5 nM | 731 nM | –
19 | CC(=O)Nc1ccc(Oc2ccc(CCNCCC3CCCCC3)cc2)cc1 [Example 30, N-(4-{4-[2-(2-Cyclohexyl-ethylamino)-ethyl]-phenoxy}-phenyl)-acetamide] | 18 nM | 260 nM | 163 nM | –
20 | CC(=O)Nc1ccc(Oc2ccc(CCNCc3ccco3)cc2)cc1 [Example 36, N-[4-(4-{2-[(Furan-2-ylmethyl)-amino]-ethyl}-phenoxy)-phenyl]-acetamide] | > 2500 nM | > 5000 nM | > 4000 nM | –
21 | CC(=O)Nc1ccc(Oc2ccc(CCNCc3cccc(Cl)c3)cc2)cc1 [Example 37, N-(4-{4-[2-(3-Chloro-benzylamino)-ethyl]-phenoxy}-phenyl)-acetamide] | 1750 nM | > 5000 nM | > 4000 nM | –
22 | CC(=O)Nc1ccc(Oc2ccc(CCNCC(C)C)cc2)cc1 [Example 38, N-{4-[4-(2-Isobutylamino-ethyl)-phenoxy]-phenyl}-acetamide] | 1720 nM | > 5000 nM | > 4000 nM | –
23 | CC(=O)Nc1ccc(Oc2ccc(CCNC3CCCCC3)cc2)cc1 [Example 39, N-{4-[4-(2-Cyclohexylamino-ethyl)-phenoxy]-phenyl}-acetamide] | > 2500 nM | > 5000 nM | > 4000 nM | –
24 | CC(=O)Nc1ccc(Oc2ccc(CCNCc3ccccc3C)cc2)cc1 [Example 40, N-(4-{4-[2-(2-Methyl-benzylamino)-ethyl]-phenoxy}-phenyl)-acetamide] | 912 nM | > 5000 nM | > 4000 nM | –

Reference: patent US8338611B2, “Opioid receptor antagonists” (Eli Lilly and Company, priority 2004, dated 2012)
